Test results: patent publication US6969724B2, “Compounds” (SmithKline Beecham-SpA, priority 1998, dated 2005)

Row | SMILES | melting point
1 | Cl.O[C@@H]1C[C@@H](CN2CCC(c3ccccc3)CC2)CCc2ccccc21 (racemic) | > 250 °C
2 | Cc1cc(C)c2c(c1)C(=O)CC(CN1CCC(c3ccccc3)CC1)CC2.Cl (racemic) | 222 to 225 °C
3 | C1=CC(CN2CCC(c3ccccc3)CC2)CCc2ccccc21.Cl (racemic) | > 250 °C
4 | Cl.OC1CC(CN2CCC(c3ccccc3)CC2)CCc2c(OCc3ccccc3)cccc21 (racemic) | 198 to 202 °C
5 | Cl.O=C1CC(CN2CCC(c3ccccc3)CC2)CCc2ccc(Cl)cc21 (racemic) | 180 to 185 °C
6 | Cc1cc(C)c2c(c1)C(O)CC(CN1CCC(c3ccccc3)CC1)CC2 (racemic) [Example 20, (±)-1,3-dimethyl-7-[(4-phenylpiperidin-1-yl)methyl]-6,7,8,9-tetrahydro-5H-benzocyclohepten-5-ol] | 52 to 55 °C
7 | CO[C@@H]1C[C@H](CN2CCC(c3ccccc3)CC2)CCc2ccccc21.Cl (racemic) | 213 to 215 °C
8 | Cc1ccccc1C1CCN(C[C@@H]2CCc3ccccc3[C@H](O)C2)CC1.Cl (racemic) | > 250 °C
9 | COc1cccc2c1CCC(CN1CCC(c3ccccc3)CC1)CC2O (racemic) [Example 10, (±)-1-Methoxy-7-[(4-phenylpiperidin-1-yl)methyl]-6,7,8,9-tetrahydro-5H-benzocyclohepten-5-ol] | 46 to 48 °C
10 | Cl.O[C@@H]1C[C@H](CN2CCC(c3cccc(F)c3)CC2)CCc2ccccc21 (racemic) | 238 to 240 °C
11 | Cl.O[C@@H]1C[C@H](CN2CCC(c3ccccc3)CC2)CCc2c(-c3ccccc3)cccc21 (racemic) | 245 to 246 °C
12 | Cl.O=C1CC(CN2CCC(c3ccccc3O)CC2)CCc2ccccc21 (racemic) | 216 to 218 °C
13 | Cc1cccc2c1CC[C@@H](CN1CCC(c3cccc(F)c3)CC1)C[C@H]2O.Cl (racemic) | 241 to 243 °C
14 | Cl.O[C@@H]1C[C@H](CN2CCC(c3cccc(Br)c3)CC2)CCc2ccccc21 (racemic) | > 250 °C
15 | Cc1cccc2c1CC[C@@H](CN1CCC(c3ccccc3)CC1)C[C@H]2O (racemic) [Example 27, (±)-cis-1-methyl-7-[(4-phenylpiperidin-1-yl)methyl]-6,7,8,9-tetrahydro-5H-benzocyclohepten-5-ol] | 52 to 55 °C
16 | Cl.c1ccc(C2CCN(CC3Cc4ccccc4C3)CC2)cc1 | > 240 °C
17 | O[C@@H]1C[C@H](CN2CCC(c3ccccc3)CC2)CCc2ccccc21 (racemic) [Example 9, (±)-cis-7-[(4-Phenylpiperidin-1-yl)methyl]-6,7,8,9-tetrahydro-5H-benzocyclohepten-5-ol] | 48 to 50 °C
18 | Cl.OC1CC(CN2CCC(c3ccccc3)CC2)CCc2c(F)cccc21 (racemic) | 218 to 220 °C
19 | COc1ccccc1C1CCN(C[C@@H]2CCc3ccccc3[C@H](O)C2)CC1 (racemic) [Example 21, (±)-cis-7-[[4-(2-methoxyphenyl)piperidin-1-yl]methyl]-6,7,8,9-tetrahydro-5H-benzocyclohepten-5-ol] | 72 to 74 °C
20 | COc1cccc2c1CC[C@@H](CN1CCC(c3ccccc3)CC1)C[C@H]2O.Cl (racemic) | 229 to 231 °C
21 | Cl.Oc1cccc2c1CC[C@@H](CN1CCC(c3ccccc3)CC1)C[C@H]2O (racemic) | 190 to 193 °C

Row | SMILES | melting point
22 | COc1ccc2c(c1)C(=O)CC(CN1CCC(c3ccccc3)CC1)CC2.Cl (racemic) | 185 to 188 °C
23 | C=CCO[C@@H]1C[C@H](CN2CCC(c3ccccc3)CC2)CCc2ccccc21.Cl (racemic) | 126 to 128 °C
24 | Cl.O=C1CC(CN2CCC(c3ccccc3)CC2)CCc2ccccc21 (racemic) | 220 °C (dec.)
25 | C1=CC(CN2CCC(c3ccccc3)CC2)Cc2ccccc21.Cl (racemic) | 239 to 240 °C
26 | Cl.O[C@@H]1C[C@H](CN2CCC(c3ccccc3)CC2)CCc2c(Br)cccc21 (racemic) | 220 to 224 °C
27 | Cl.OC1CC(CN2CCC(c3ccc(F)cc3)CC2)CCc2ccccc21 (racemic) | 227 to 229 °C
28 | Cl.OC1CC(CN2CCC(c3ccccc3Cl)CC2)CCc2ccccc21 (racemic) | 239 to 240 °C
29 | Cc1ccccc1C1CCN(CC2CCc3ccccc3CC2)CC1.Cl | 245 °C
30 | COc1cccc2c1CCC(CN1CCC(c3ccccc3)CC1)CC2=O.Cl (racemic) | 140 to 143 °C
31 | Cl.Oc1ccccc1C1CCN(CC2CCc3ccccc3C(O)C2)CC1 (racemic) | 158 to 160 °C
32 | COc1cccc2c1C(O)CC(CN1CCC(c3ccccc3)CC1)CC2.Cl (racemic) | 176 to 189 °C
33 | COc1ccc2c(c1)C(O)CC(CN1CCC(c3ccccc3)CC1)CC2 (racemic) [Example 11, (±)-3-Methoxy-7-[(4-phenylpiperidin-1-yl)methyl]-6,7,8,9-tetrahydro-5H-benzocyclohepten-5-ol] | 45 to 48 °C
34 | Cl.c1ccc(C2CCN(C3CCc4ccccc4CC3)CC2)cc1 | > 250 °C
35 | CO[C@@H]1C[C@@H](CN2CCC(c3ccccc3)CC2)CCc2ccccc21.Cl (racemic) | 220 to 222 °C
36 | Cl.c1ccc(C2CCN(C3Cc4ccccc4C3)CC2)cc1 | > 250 °C
37 | Cl.c1ccc(C2CCN(CC3CCc4ccccc4CC3)CC2)cc1 | > 250 °C
38 | COc1ccccc1C1CCN(CC2CCc3ccccc3C(=O)C2)CC1.Cl (racemic) | 232 to 234 °C
39 | Cl.O[C@@H]1C[C@H](CN2CCC(c3ccc(OCc4ccccc4)cc3)CC2)CCc2ccccc21 (racemic) | 225 to 228 °C
40 | COc1cc(OC)cc(C2CCN(CC3CCc4ccccc4C(O)C3)CC2)c1.Cl (racemic) | 223 to 225 °C
41 | COc1cccc2c1CC[C@H](CN1CCC(c3ccccc3)CC1)C[C@H]2O.Cl (racemic) | > 250 °C
